13 compounds from ChEMBL document CHEMBL5360618, “PepScaf: Harnessing Machine Learning with In Vitro Selection toward De Novo Macrocyclic Peptides against IL-17C/IL-17RE Interaction” (J Med Chem, 2023) can be followed below.

As usually defined, the IC50 is the concentration that inhibits the measured activity by half. High values mean lower potency, low ones higher potency.

Positions of bridges follow the written chain, without caps; N, C: chain ends. Residues, ends and D or L forms follow the SMILES beside them. Where only a bound is given, the exact number is not on record here.

This experiment deals with T1, IL17-RE-IL-17C (Homo sapiens, UniProt Q8NFR9+Q9P0M4).
T1 sequence (Q9P0M4 whole entry): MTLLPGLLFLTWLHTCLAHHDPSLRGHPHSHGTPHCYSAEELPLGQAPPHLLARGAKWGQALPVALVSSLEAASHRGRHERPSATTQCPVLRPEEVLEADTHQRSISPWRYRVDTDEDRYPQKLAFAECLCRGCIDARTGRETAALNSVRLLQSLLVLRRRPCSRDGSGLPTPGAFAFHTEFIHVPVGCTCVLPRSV
T1 sequence (Q8NFR9 whole entry): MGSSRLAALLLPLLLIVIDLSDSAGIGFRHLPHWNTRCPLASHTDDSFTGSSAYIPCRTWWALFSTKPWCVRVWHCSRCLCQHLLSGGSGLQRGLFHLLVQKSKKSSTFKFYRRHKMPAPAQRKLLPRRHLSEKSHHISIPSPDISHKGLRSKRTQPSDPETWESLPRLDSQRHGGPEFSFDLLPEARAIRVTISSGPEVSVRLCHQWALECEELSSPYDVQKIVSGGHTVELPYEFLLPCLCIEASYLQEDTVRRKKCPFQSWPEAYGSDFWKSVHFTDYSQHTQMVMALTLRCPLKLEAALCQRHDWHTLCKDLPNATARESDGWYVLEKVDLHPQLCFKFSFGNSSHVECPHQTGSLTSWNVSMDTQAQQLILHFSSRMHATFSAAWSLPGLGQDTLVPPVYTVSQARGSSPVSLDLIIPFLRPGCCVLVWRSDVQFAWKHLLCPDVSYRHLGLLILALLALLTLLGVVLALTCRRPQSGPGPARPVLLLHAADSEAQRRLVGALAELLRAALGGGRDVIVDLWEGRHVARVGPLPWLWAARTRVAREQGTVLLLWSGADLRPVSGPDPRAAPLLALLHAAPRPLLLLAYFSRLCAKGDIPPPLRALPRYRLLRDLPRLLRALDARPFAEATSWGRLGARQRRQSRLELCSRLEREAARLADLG
The experiment can be described thus: Inhibition of IL-17C/IL-17RE interaction (unknown origin) incubated for 1.5 hrs by ELISA method. It is filed as protein-complex assay. For orientation: ELISA stands for enzyme-linked immunosorbent assay.
The compound `CC(C)C[C@@H]1NC(=O)[C@H](CC(N)=O)NC(=O)CNC(=O)[C@H](Cc2ccc(O)cc2)NC(=O)[C@H](CC(C)C)NC(=O)[C@H](CC(C)C)NC(=O)[C@H](CCCNC(=N)N)NC(=O)[C@H](Cc2ccc(O)cc2)NC(=O)[C@H](Cc2ccc(O)cc2)NC(=O)[C@H](CC(C)C)NC(=O)[C@H](Cc2c[nH]cn2)NC(=O)[C@H](Cc2ccc(O)cc2)NC(=O)CSC[C@@H](C(=O)NCC(N)=O)NC(=O)CNC1=O` ({CH2CO}-YHLYYRLLYGNLGCG-NH2; thioether N-14) yielded an IC50 of 48.8 nM. `CC(C)C[C@@H]1NC(=O)[C@H](CO)NC(=O)CNC(=O)[C@H](Cc2ccc(O)cc2)NC(=O)[C@H](CC(C)C)NC(=O)[C@H](CO)NC(=O)[C@H](CCC(N)=O)NC(=O)[C@H](Cc2ccc(O)cc2)NC(=O)[C@H](Cc2ccc(O)cc2)NC(=O)[C@H](C(C)C)NC(=O)[C@H](Cc2c[nH]cn2)NC(=O)[C@H](Cc2ccc(O)cc2)NC(=O)CSC[C@@H](C(=O)NCC(N)=O)NC(=O)CNC1=O` ({CH2CO}-YHVYYQSLYGSLGCG-NH2; thioether N-14) came in with an IC50 of 7.9 nM. The figure for `CC[C@H](C)[C@@H]1NC(=O)[C@H](C)NC(=O)[C@H](Cc2ccc(O)cc2)NC(=O)[C@H](Cc2ccc(O)cc2)NC(=O)[C@H](Cc2c[nH]cn2)NC(=O)[C@H](Cc2c[nH]cn2)NC(=O)[C@H](Cc2ccc(O)cc2)NC(=O)CSC[C@@H](C(=O)NCC(N)=O)NC(=O)CNC(=O)[C@H](CC(C)C)NC(=O)[C@H](CCC(=O)O)NC(=O)CNC(=O)[C@H](Cc2ccc(O)cc2)NC(=O)[C@H](CC(C)C)NC1=O` ({CH2CO}-YHHYYAILYGELGCG-NH2; thioether N-14) is 400 nM; for `CC(C)C[C@@H]1NC(=O)[C@H](CCC(=O)O)NC(=O)CNC(=O)[C@H](Cc2ccc(O)cc2)NC(=O)[C@H](CC(C)C)NC(=O)[C@H](Cc2ccccc2)NC(=O)[C@H](CCCNC(=N)N)NC(=O)[C@H](Cc2ccc(O)cc2)NC(=O)[C@H](Cc2ccc(O)cc2)NC(=O)[C@H](Cc2c[nH]cn2)NC(=O)[C@H](Cc2c[nH]cn2)NC(=O)[C@H](Cc2ccc(O)cc2)NC(=O)CSC[C@@H](C(=O)NCC(N)=O)NC(=O)CNC1=O` ({CH2CO}-YHHYYRFLYGELGCG-NH2; thioether N-14) it is 1670 nM; for `CC(C)C[C@@H]1NC(=O)[C@H](CCC(=O)O)NC(=O)CNC(=O)[C@H](Cc2ccc(O)cc2)NC(=O)[C@H](CC(C)C)NC(=O)[C@H]([C@@H](C)O)NC(=O)[C@H](CCCNC(=N)N)NC(=O)[C@H](Cc2ccc(O)cc2)NC(=O)[C@H](Cc2ccc(O)cc2)NC(=O)[C@H](Cc2c[nH]cn2)NC(=O)[C@H](Cc2c[nH]cn2)NC(=O)[C@H](Cc2ccc(O)cc2)NC(=O)CSC[C@@H](C(=O)NCC(N)=O)NC(=O)CNC1=O` ({CH2CO}-YHHYYRTLYGELGCG-NH2; thioether N-14) it is 288 nM. The figure for `CC(C)C[C@@H]1NC(=O)[C@H](Cc2c[nH]c3ccccc23)NC(=O)[C@H](Cc2c[nH]cn2)NC(=O)[C@H](CC(=O)O)NC(=O)[C@H](Cc2ccccc2)NC(=O)[C@H](Cc2c[nH]cn2)NC(=O)[C@H](Cc2ccc(O)cc2)NC(=O)CSC[C@@H](C(=O)NCC(N)=O)NC(=O)[C@H](CC(C)C)NC(=O)[C@H](CC(C)C)NC(=O)[C@H](Cc2c[nH]cn2)NC(=O)[C@H](C)NC1=O` ({CH2CO}-YHFDHWLAHLLCG-NH2; thioether N-12) is above 30000 nM.

`CC[C@H](C)[C@@H]1NC(=O)[C@H](CCCNC(=N)N)NC(=O)[C@H](Cc2ccc(O)cc2)NC(=O)[C@H](Cc2ccc(O)cc2)NC(=O)[C@H](Cc2c[nH]cn2)NC(=O)[C@H](Cc2c[nH]cn2)NC(=O)[C@H](Cc2ccc(O)cc2)NC(=O)CSC[C@@H](C(=O)NCC(N)=O)NC(=O)CNC(=O)[C@H](CC(C)C)NC(=O)[C@H](C(C)C)NC(=O)CNC(=O)[C@H](Cc2ccc(O)cc2)NC(=O)[C@H](CC(C)C)NC1=O` ({CH2CO}-YHHYYRILYGVLGCG-NH2; thioether N-14) showed an IC50 of 442 nM. In the case of `CC[C@H](C)[C@@H]1NC(=O)[C@H](CCCNC(=N)N)NC(=O)[C@H](Cc2ccc(O)cc2)NC(=O)[C@H](Cc2ccc(O)cc2)NC(=O)[C@H](Cc2c[nH]cn2)NC(=O)[C@H](Cc2c[nH]cn2)NC(=O)[C@H](Cc2ccc(O)cc2)NC(=O)CSC[C@@H](C(=O)NCC(N)=O)NC(=O)CNC(=O)[C@H](CC(C)C)NC(=O)[C@H](CCC(=O)O)NC(=O)CNC(=O)[C@H](Cc2ccc(O)cc2)NC(=O)[C@@H]2CCCN2C1=O` ({CH2CO}-YHHYYRIPYGELGCG-NH2; thioether N-14) it was above 30000 nM; in that of `CC(C)C[C@@H]1NC(=O)[C@H](Cc2ccc(O)cc2)NC(=O)[C@H](CC(=O)O)NC(=O)[C@H](CCCCN)NC(=O)[C@H](CC(C)C)NC(=O)[C@H](Cc2c[nH]c3ccccc23)NC(=O)[C@H](C)NC(=O)[C@H](CC(=O)O)NC(=O)[C@H](Cc2ccccc2)NC(=O)[C@H](Cc2c[nH]cn2)NC(=O)[C@H](Cc2ccc(O)cc2)NC(=O)CSC[C@@H](C(=O)NCC(N)=O)NC(=O)CNC1=O` ({CH2CO}-YHFDAWLKDYLGCG-NH2; thioether N-13), above 30000 nM. As to `CC[C@H](C)[C@@H]1NC(=O)[C@H](CCCNC(=N)N)NC(=O)[C@H](Cc2ccc(O)cc2)NC(=O)[C@H](Cc2ccc(O)cc2)NC(=O)[C@H](Cc2c[nH]cn2)NC(=O)[C@H](CCCNC(=N)N)NC(=O)[C@H](Cc2ccc(O)cc2)NC(=O)CSC[C@@H](C(=O)NCC(N)=O)NC(=O)CNC(=O)[C@H](CC(C)C)NC(=O)[C@H](CCC(=O)O)NC(=O)CNC(=O)[C@H](Cc2ccc(O)cc2)NC(=O)[C@H](CC(C)C)NC1=O` ({CH2CO}-YRHYYRILYGELGCG-NH2; thioether N-14), the IC50 is above 30000 nM.

In turn, `CC(C)C[C@@H]1NC(=O)[C@H](Cc2c[nH]c3ccccc23)NC(=O)[C@H](CC(N)=O)NC(=O)[C@H](CC(=O)O)NC(=O)[C@H](Cc2ccccc2)NC(=O)[C@H](Cc2c[nH]cn2)NC(=O)[C@H](Cc2ccc(O)cc2)NC(=O)CSC[C@@H](C(=O)NCC(N)=O)NC(=O)[C@H](CC(C)C)NC(=O)[C@H](Cc2ccccc2)NC(=O)[C@H](C(C)C)NC(=O)[C@H](CCCNC(=N)N)NC1=O` ({CH2CO}-YHFDNWLRVFLCG-NH2; thioether N-12) gave an IC50 above 30000 nM. The figure for `CC[C@H](C)[C@@H]1NC(=O)[C@H](CC(C)C)NC(=O)[C@H](C)NC(=O)[C@H](CC(C)C)NC(=O)[C@H](Cc2c[nH]c3ccccc23)NC(=O)[C@H](CC(N)=O)NC(=O)[C@H](CC(=O)O)NC(=O)[C@H](Cc2ccccc2)NC(=O)[C@H](Cc2c[nH]cn2)NC(=O)[C@H](Cc2ccc(O)cc2)NC(=O)CSC[C@@H](C(=O)NCC(N)=O)NC(=O)[C@H](CC(C)C)NC1=O` ({CH2CO}-YHFDNWLALILCG-NH2; thioether N-12) is above 30000 nM.

For the compound `CC[C@H](C)[C@@H]1NC(=O)[C@H](CCCNC(=N)N)NC(=O)[C@H](Cc2ccc(O)cc2)NC(=O)[C@H](Cc2ccc(O)cc2)NC(=O)[C@H](Cc2c[nH]cn2)NC(=O)[C@H](Cc2c[nH]cn2)NC(=O)[C@H](Cc2ccc(O)cc2)NC(=O)CSC[C@@H](C(=O)NCC(N)=O)NC(=O)CNC(=O)[C@H](CC(C)C)NC(=O)[C@H](CCC(=O)O)NC(=O)[C@H](C)NC(=O)[C@H](Cc2ccc(O)cc2)NC(=O)[C@H](CC(C)C)NC1=O` ({CH2CO}-YHHYYRILYAELGCG-NH2; thioether N-14), half-maximal inhibition (IC50) required 1360 nM.
